Experimental data taken from patent US20140105996A1, “Avian-Based Treatment” (Cocky Smart Pty Ltd, priority 2011, published 2014).

Tested on: A2058 melanoma cells
Experiment: Growth of A2058 melanoma cells with EP-2 or TPP (Examples 1-3)
Assay type: cell-based
Procedure: Saturated solutions of bird extract EP-2, 10 ng/mL triphenyl phosphate (TPP) or control media were used to saturate growth medium containing melanoma cells (A2058 Melanoma cells) at a concentration of approximately 1.2×10^4 cells/well or 1.0×10^4 cells/well. All results are average cell counts for experiments performed in triplicate (see FIG. 1). TPP was investigated on the basis of the findings in Zurhaar WO2008/019452 “Insect Repellent” that the insect repellent factor in an avian extract was TPP.
Pooled solvent vehicle (ethanol, methanol and pentane—used for EP-2 extraction), avian extract EP-2 and TPP were applied to 4×10^4 A2058 cells in 12 well plates.
To further investigate the effect of EP-2 on cells in general, a ⅕ dilution of avian extract EP-2 was placed on 1×10^4 A2058 melanoma cells and HEK293 non-cancerous human embryonic kidney cells.

O=P(Oc1ccccc1)(Oc1ccccc1)Oc1ccccc1 [TPP, Triphenyl phosphate]
lower growth rate than cells containing control medium (Example 1, by day 9, 10 ng/mL TPP): 25% | effect on cell growth (Example 2): moderate effect
